Test results from patent publication US9925189B2, “Heterocyclic receptor agonists for the treatment of diabetes and metabolic disorders” (CymaBay Therapeutics, Inc., priority 2006, dated 2018).

Target: T1, IC-GPCR2 (Homo sapiens, UniProt Q8TDV5, S309L)
T1 construct: expressed in transfected cells
T1 sequence (Q8TDV5 1-335 S309L): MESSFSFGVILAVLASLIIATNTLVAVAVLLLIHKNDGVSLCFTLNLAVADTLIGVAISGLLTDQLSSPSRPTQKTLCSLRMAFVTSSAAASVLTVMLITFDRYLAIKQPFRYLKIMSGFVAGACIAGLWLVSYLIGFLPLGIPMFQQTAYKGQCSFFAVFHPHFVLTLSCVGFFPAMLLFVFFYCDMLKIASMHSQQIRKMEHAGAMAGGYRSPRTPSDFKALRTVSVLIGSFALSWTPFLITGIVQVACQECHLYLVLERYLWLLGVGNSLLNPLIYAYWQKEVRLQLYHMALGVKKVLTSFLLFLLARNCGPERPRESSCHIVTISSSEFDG
Assay: Stimulation of cAMP in CHO cells stably expressing IC-GPCR2 (HTRF cAMP assay)
Assay type: cell-based
Conditions: 0.5 h, 30 minutes, IC-GPCR2 stably expressing CHO cells, read-out: Activity at 10 uM (% change in FRET signal from DMSO control)
Protocol: This assay was developed using a stable cell line expressing IC-GPCR-2, generated as follows. IC-GPCR2 (SEQ ID NO:1) was cloned into Gateway pDEST 40vector (Invitrogen), using the Gateway cloning system (invitrogen) according to the manufacturer's instructions. A stable cell line was generated by transfecting a 10 cm plate of CHO cells (source) with 8 ug of this construct using Transit-CHO transfection kit (Mirus). CHO cells were plated the day prior to transfection at a density of 3,000,000 cells/plate. Clones were selected using the antibiotic G418 at 500 ug/ml. 23 clones were picked and assayed for the expression of the receptor by measuring changes in intracellular cAMP levels in response to an IC-GPCR2 agonist.
To measure cAMP activity in response to IC-GPCR2 agonist, the clones were plated in 96 well plates at 17500 cells per well. On the day after plating, cells were incubated with the IC-CPCR2 agonist at […] for 30 minutes in Ham's F12 Media (Gibco) with 0.04% DMSO. cAMP was measured using the cAMP dynamic kit from Cis Bio (Bedford, Mass.) according to the manufacturer's instructions. Briefly, cells were lysed, and cAMP levels determined by competitive immunoassay using D2 labeled cAMP, and europium cryptate tagged anti cAMP antibody. When in close proximity, the D2 and europium cryptate undergo fluorescence resonance energy transfer (FRET), which is measured as a fluorescence ratio (665 nm/620 nm). Unlabelled cAMP in the cell lysate competed with the D2 labeled cAMP for the europium crypate labeled antibody. The resulting decrease in FRET signal corresponded to intracellular cAMP levels. Fluorescence was read on a BMG Labtech PHERAstar, software version 1.50.
Compounds were dissolved in 100% DMSO to a concentration of […] to provide stock solutions. To determine activity against IC-GPCR2, compounds were incubated with IC-GPCR2 stably expressing cells (described above), at 6-8 concentrations ranging from 0.00003 to 10 micromolar, in 96 well plates, in 50 ul of Hams F12 media for 30 minutes. Cells were plated at 17500 cells per well 1 day before running the assay. All compounds were also screened against the parental CHO cells. cAMP was measured using the cAMP dynamic kit from Cis Bio (Bedford, Mass.), according to the manufacturer's instructions. Briefly, cells were lysed and cAMP levels determined by competitive immunoassay using D2 labeled cAMP, and europium cryptate tagged anti cAMP antibody. When in close proximity, the D2 and europium cryptate undergo fluorescence resonance energy transfer (FRET), which is measured as a fluorescence ratio (665 nm/620 nm). Unlabelled cAMP in the cell lysate competed with the D2 labeled cAMP for the europium crypate labeled antibody. The resulting decrease in FRET signal corresponded to intracellular cAMP levels.
Activities of compounds disclosed in Table 1 and Table 2 below are expressed as the % change in FRET signal from DMSO control. “*” no activity observed when tested at 10 micromolar but no higher concentrations were tested. NT indicates the compound was not tested at the indicated concentration.

| SMILES | activation at 10 µM |
| --- | --- |
| CN1CCN(C(=O)N2CCC(c3nc(COc4ccc(-n5cnnn5)cc4)cs3)CC2)CC1 [Example 44, (4-Methyl-piperazin-1-yl)-{4-[4-(4-tetrazol-1-yl-phenoxymethyl)-thiazol-2-yl]-piperidin-1-yl}-methanone] | 53% |
| CC(C)(C)OC(=O)N1CCCC(c2nc(COc3ccc(-n4cnnn4)cc3)cs2)C1 (centres unmarked) [Example 104, 3-[4-(4-Tetrazol-1-yl-phenoxymethyl)-thiazol-2-yl]-piperidine-1-carboxylic acid tert-butyl ester] | 76% |
| Clc1cnc(N2CCC(c3nc(COc4ccc(-n5cnnn5)cc4)cs3)CC2)nc1 [Example 60] | 60% |
| CCCCC(CC)COC(=O)N1CCC(c2nc(COc3ccc(-n4cnnn4)cc3)cs2)CC1 (centres unmarked) [Example 36, 4-[4-(4-Tetrazol-1-yl-phenoxymethyl)-thiazol-2-yl]-piperidine-1-carboxylic acid 2-ethyl-hexyl ester] | 95% |
| CS(=O)(=O)N1CCC(c2nc(COc3ccc(-n4cnnn4)cc3)cs2)CC1 [Example 154, 1-Methanesulfonyl-4-[4-(4-tetrazol-1-yl-phenoxymethyl)-thiazol-2-yl]-piperidine] | 66% |
| CC(C)[C@@H]1CC[C@@H](C)C[C@H]1OC(=O)N1CCC(c2nc(COc3ccc(-n4cnnn4)cc3)cs2)CC1 [Example 38, 4-[4-(4-Tetrazol-1-yl-phenoxymethyl)-thiazol-2-yl]-piperidine-1-carboxylic acid 2-isopropyl-5-methyl-cyclohexyl ester] | 39% |
| CC(C)(C)OC(=O)N1CCC(c2nc(COc3ccc(S(C)(=O)=O)cc3)no2)CC1 [Example 81, 4-[3-(4-Methanesulfonyl-phenoxymethyl)-[1,2,4]oxadiazol-5-yl]-piperidine-1-carboxylic acid tert-butyl ester] | 59% |
| CCC(=O)c1cc(F)c(OCc2csc(C3CCN(C(=O)OC(C)(C)C)CC3)n2)c(F)c1 [Example 124, 4-[4-(2,6-Difluoro-4-propionyl-phenoxymethyl)-thiazol-2-yl]-piperidine-1-carboxylic acid tert-butyl ester] | 80% |
| CC(C)OC(=O)N1CCC(c2nc(COc3ccc(S(C)(=O)=O)cc3F)cs2)CC1 [Example 148, 4-[4-(2-Fluoro-4-methanesulfonyl-phenoxymethyl)-thiazol-2-yl]-piperidine-1-carboxylic acid isopropyl ester] | 74% |
| CCc1cnc(N2CCCC(c3nc(COc4ccc(-n5cnnn5)cc4)cs3)C2)nc1 (centres unmarked) [Example 105, 5-Ethyl-2-{3-[4-(4-tetrazol-1-yl-phenoxymethyl)-thiazol-2-yl]-piperidin-1-yl}-pyrimidine] | 52% |
| CCc1cnc(N2CC[C@@H](c3nc(COc4ccc(-n5cnnn5)cc4F)cs3)[C@@H](C)C2)nc1 (stereo in doubt) [Example 200, 5-Ethyl-2-{4-[4-(2-fluoro-4-tetrazol-1-yl-phenoxymethyl)-thiazol-2-yl]-3-methyl-piperidin-1-yl}-pyrimidine] | 82% |
| Fc1cc(-n2cnnn2)ccc1OCc1csc(C2CCN(c3ncc(C(F)(F)F)cn3)CC2)n1 [Example 171, 2-{4-[4-(2-Fluoro-4-tetrazol-1-yl-phenoxymethyl)-thiazol-2-yl]-piperidin-1-yl}-5-trifluoromethyl-pyrimidine] | 76% |
| CCc1cnc(N2CCC(c3nc(COc4ccc(S(N)(=O)=O)cc4)cs3)CC2)nc1 [Example 9, 4-{2-[1-(5-Ethyl-pyrimidin-2-yl)-piperidin-4-yl]-thiazol-4-ylmethoxy}-benzenesulfonamide] | 54% |
| CCc1cnc(N2CCC(c3nc(COc4ccc(SC(F)(F)F)cc4)cs3)CC2)nc1 [Example 16, 5-Ethyl-2-{4-[4-(4-trifluoromethylsulfanyl-phenoxymethyl)-thiazol-2-yl]-piperidin-1-yl}-pyrimidine] | 56% |
| Fc1cc(-n2cnnn2)ccc1OCc1csc(C2CCN(c3ncc(Cl)cn3)CC2)n1 [Example 195, 5-Chloro-2-{4-[4-(2-fluoro-4-tetrazol-1-yl-phenoxymethyl)-thiazol-2-yl]-piperidin-1-yl}-pyrimidine] | 68% |
| CC(C)c1cnc(N2CCC(c3nc(COc4ccc(-n5cnnn5)cc4F)cs3)CC2)nc1 [Example 162, 2-{4-[4-(2-Fluoro-4-tetrazol-1-yl-phenoxymethyl)-thiazol-2-yl]-piperidin-1-yl}-5-isopropyl-pyrimidine] | 79% |
| CC(C)(C)OC(=O)N1CCC(c2nc(COc3ccc(-n4cnnn4)cc3)cs2)C1 (centres unmarked) [Example 102, 3-[4-(4-Tetrazol-1-yl-phenoxymethyl)-thiazol-2-yl]-pyrrolidine-1-carboxylic acid tert-butyl ester] | 49% |
| CS(=O)(=O)c1ccc(OCc2csc(C3CCN(C(=O)c4cccnc4)CC3)n2)cc1 [Example 40, {4-[4-(4-Methanesulfonyl-phenoxymethyl)-thiazol-2-yl]-piperidin-1-yl}-pyridin-3-yl-methanone] | 21% |
| CC(C)(C)OC(=O)N1CCC(C)(c2nc(COc3ccc(S(C)(=O)=O)cc3)cs2)CC1 [Example 78, 4-[4-(4-Methanesulfonyl-phenoxymethyl)-thiazol-2-yl]-4-methyl-piperidine-1-carboxylic acid tert-butyl ester] | 43% |
| CCOC(=O)CC(=O)N1CCC(c2nc(COc3ccc(-n4cnnn4)cc3)cs2)CC1 [Example 43, 3-Oxo-3-{4-[4-(4-tetrazol-1-yl-phenoxymethyl)-thiazol-2-yl]-piperidin-1-yl}-propionic acid ethyl ester] | 47% |
| COC(=O)c1cc(Cl)cnc1N1CCC(c2nc(COc3ccc(-n4cnnn4)cc3)cs2)CC1 [Example 198, 5′-Chloro-4-[4-(4-tetrazol-1-yl-phenoxymethyl)-thiazol-2-yl]-3,4,5,6-tetrahydro-2H-[1,2′]bipyridinyl-3′-carboxylic acid methyl ester] | 15% |
| C[C@H](NCc1csc(C2CCN(C(=O)OC(C)(C)C)CC2)n1)c1ccc(S(C)(=O)=O)cc1 [Example 143, 4-(4-{[1-(4-Methanesulfonyl-phenyl)-ethylamino]-methyl}-thiazol-2-yl)-piperidine-1-carboxylic acid tert-butyl ester] | 63% |
| FC(F)(F)c1cnc(N2CCC(c3nc(COc4ccc(-n5cnnn5)cc4)cs3)CC2)c(Cl)c1 [Example 193, 3′-Chloro-4-[4-(4-tetrazol-1-yl-phenoxymethyl)-thiazol-2-yl]-5′-trifluoromethyl-3,4,5,6-tetrahydro-2H-[1,2′]bipyridinyl] | 35% |
| CC(C)(C)OC(=O)N1CCC(c2nc(COc3ccc(-n4ccnn4)cc3)cs2)CC1 [Example 128, 4-[4-(4-[1,2,3]Triazol-1-yl-phenoxymethyl)-thiazol-2-yl]-piperidine-1-carboxylic acid tert-butyl ester] | 57% |
| COC(=O)N1CCC(c2nc(COc3ccc(S(C)(=O)=O)cc3)cs2)CC1 [Example 26, 4-[4-(4-Methanesulfonyl-phenoxymethyl)-thiazol-2-yl]-piperidine-1-carboxylic acid methyl ester] | 58% |
| Cc1cc(C(=O)O)nc(N2CCC(c3nc(COc4ccc(-n5cnnn5)cc4)cs3)CC2)n1 [Example 176, 6-Methyl-2-{4-[4-(4-tetrazol-1-yl-phenoxymethyl)-thiazol-2-yl]-piperidin-1-yl}-pyrimidine-4-carboxylic acid] | 43% |
